Experiments:
[1] = biological target: T1, Calcium/calmodulin-dependent protein kinase type IV (Homo sapiens) (UniProt Q16566); test: Inhibition of human full length CAMK4 expressed in baculovirus assessed as substrate phosphorylation using fluorescence-labelled peptides as substrate at 8 uM after 90 mins by microfluidic peptide phosphorylation assay
T1 sequence (whole entry): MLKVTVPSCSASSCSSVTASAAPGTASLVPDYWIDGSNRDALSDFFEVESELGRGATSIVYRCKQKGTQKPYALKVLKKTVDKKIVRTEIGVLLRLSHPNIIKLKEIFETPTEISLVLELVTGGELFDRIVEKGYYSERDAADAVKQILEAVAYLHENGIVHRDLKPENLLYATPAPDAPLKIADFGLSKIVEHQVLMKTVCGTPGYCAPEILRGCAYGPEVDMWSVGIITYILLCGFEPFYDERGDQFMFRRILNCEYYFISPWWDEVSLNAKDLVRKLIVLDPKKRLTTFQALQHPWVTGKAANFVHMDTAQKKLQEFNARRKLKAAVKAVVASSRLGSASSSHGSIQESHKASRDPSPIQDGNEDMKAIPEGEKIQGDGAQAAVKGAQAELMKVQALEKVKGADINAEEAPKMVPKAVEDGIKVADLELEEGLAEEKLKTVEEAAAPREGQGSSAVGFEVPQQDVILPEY

[2] = biological target: Serine/threonine-protein kinase pim-1 (Homo sapiens) (UniProt P11309); test: Inhibition of human full length PIM1 expressed in baculovirus assessed as substrate phosphorylation using fluorescence-labelled peptides as substrate at 8 uM after 90 mins by microfluidic peptide phosphorylation assay
[3] = biological target: T2, Mitogen-activated protein kinase 13 (Homo sapiens) (UniProt O15264); test: Inhibition of human full length p38 delta expressed in Escherichia coli cell assessed as substrate phosphorylation using fluorescence-labelled peptides as substrate at 0.06 uM after 90 mins by microfluidic peptide phosphorylation assay
T2 sequence (whole entry): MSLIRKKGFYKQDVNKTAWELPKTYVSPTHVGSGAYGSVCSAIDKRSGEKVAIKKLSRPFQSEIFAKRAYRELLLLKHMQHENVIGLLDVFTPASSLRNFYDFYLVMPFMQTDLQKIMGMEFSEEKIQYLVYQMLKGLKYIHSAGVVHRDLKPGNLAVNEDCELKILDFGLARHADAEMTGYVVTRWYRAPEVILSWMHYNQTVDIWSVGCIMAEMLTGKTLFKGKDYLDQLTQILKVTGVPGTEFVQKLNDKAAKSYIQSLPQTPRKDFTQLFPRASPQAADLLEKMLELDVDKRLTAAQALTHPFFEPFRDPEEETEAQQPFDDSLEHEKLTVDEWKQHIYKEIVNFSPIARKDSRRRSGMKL

[4] = biological target: Fibroblast growth factor receptor 1 (Homo sapiens) (UniProt P11362); test: Inhibition of human FGFR1 catalytic domain expressed in baculovirus assessed as substrate phosphorylation using fluorescence-labelled peptides as substrate at 0.2 uM after 90 mins by microfluidic peptide phosphorylation assay
[5] = biological target: Calcium/calmodulin-dependent protein kinase type II subunit delta (Homo sapiens) (UniProt Q13557); test: Inhibition of human full length CAMK2D expressed in baculovirus assessed as substrate phosphorylation using fluorescence-labelled peptides as substrate at 2 uM after 90 mins by microfluidic peptide phosphorylation assay
[6] = biological target: RAF proto-oncogene serine/threonine-protein kinase (Homo sapiens) (UniProt P04049); test: Inhibition of human truncated c-Raf expressed in baculovirus assessed as substrate phosphorylation using fluorescence-labelled peptides as substrate at 9 uM after 90 mins by microfluidic peptide phosphorylation assay
[7] = biological target: Rho-associated protein kinase 2 (Homo sapiens) (UniProt O75116); conditions: 0.1 uM
Description: Inhibition of human ROCK2 catalytic domain expressed in baculovirus assessed as substrate phosphorylation using fluorescence-labelled peptides as substrate at 0.1 uM after 90 mins by microfluidic peptide phosphorylation assay

[8] = biological target: Fibroblast growth factor receptor 2 (Homo sapiens) (UniProt P21802); test: Inhibition of human FGFR2 catalytic domain expressed in baculovirus assessed as substrate phosphorylation using fluorescence-labelled peptides as substrate at 95 uM after 90 mins by microfluidic peptide phosphorylation assay
[9] = biological target: T3, cGMP-dependent protein kinase 1 (Homo sapiens) (UniProt Q13976); test: Inhibition of human full length PKG-1beta expressed in baculovirus assessed as substrate phosphorylation using fluorescence-labelled peptides as substrate at 95 uM after 90 mins by microfluidic peptide phosphorylation assay
T3 sequence (whole entry): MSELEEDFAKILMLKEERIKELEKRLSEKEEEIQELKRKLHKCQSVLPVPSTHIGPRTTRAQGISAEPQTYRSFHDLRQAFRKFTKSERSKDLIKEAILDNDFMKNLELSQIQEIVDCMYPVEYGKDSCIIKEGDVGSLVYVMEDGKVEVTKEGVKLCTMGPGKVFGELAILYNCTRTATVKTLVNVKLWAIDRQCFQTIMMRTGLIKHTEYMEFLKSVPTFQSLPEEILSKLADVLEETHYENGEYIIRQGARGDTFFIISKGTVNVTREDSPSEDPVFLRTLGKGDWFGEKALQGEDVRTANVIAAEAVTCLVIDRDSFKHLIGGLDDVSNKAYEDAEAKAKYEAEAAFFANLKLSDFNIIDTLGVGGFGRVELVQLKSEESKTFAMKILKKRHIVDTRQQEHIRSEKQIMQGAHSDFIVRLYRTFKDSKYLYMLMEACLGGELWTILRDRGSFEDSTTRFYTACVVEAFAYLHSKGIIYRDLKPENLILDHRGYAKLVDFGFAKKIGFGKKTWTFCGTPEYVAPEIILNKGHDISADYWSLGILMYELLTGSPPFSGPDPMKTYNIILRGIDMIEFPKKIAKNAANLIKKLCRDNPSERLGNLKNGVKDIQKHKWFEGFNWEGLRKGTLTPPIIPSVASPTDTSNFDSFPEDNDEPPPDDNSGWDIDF

[10] = biological target: T2, Mitogen-activated protein kinase 13 (Homo sapiens); test: Inhibition of human full length p38 delta expressed in Escherichia coli cell assessed as substrate phosphorylation using fluorescence-labelled peptides as substrate at 1000 uM after 90 mins by microfluidic peptide phosphorylation assay
[11] = biological target: Fibroblast growth factor receptor 4 (Homo sapiens) (UniProt P22455); test: Inhibition of human FGFR4 catalytic domain expressed in baculovirus assessed as substrate phosphorylation using fluorescence-labelled peptides as substrate at 70 uM after 90 mins by microfluidic peptide phosphorylation assay
[12] = biological target: Serine/threonine-protein kinase MARK1 (Homo sapiens) (UniProt Q9P0L2); test: Inhibition of human full length MARK1 expressed in baculovirus assessed as substrate phosphorylation using fluorescence-labelled peptides as substrate at 70 uM after 90 mins by microfluidic peptide phosphorylation assay

Chain of Calcium/calmodulin-dependent protein kinase type II subunit delta (Homo sapiens) (Q13557 whole entry, the tested form may be a part): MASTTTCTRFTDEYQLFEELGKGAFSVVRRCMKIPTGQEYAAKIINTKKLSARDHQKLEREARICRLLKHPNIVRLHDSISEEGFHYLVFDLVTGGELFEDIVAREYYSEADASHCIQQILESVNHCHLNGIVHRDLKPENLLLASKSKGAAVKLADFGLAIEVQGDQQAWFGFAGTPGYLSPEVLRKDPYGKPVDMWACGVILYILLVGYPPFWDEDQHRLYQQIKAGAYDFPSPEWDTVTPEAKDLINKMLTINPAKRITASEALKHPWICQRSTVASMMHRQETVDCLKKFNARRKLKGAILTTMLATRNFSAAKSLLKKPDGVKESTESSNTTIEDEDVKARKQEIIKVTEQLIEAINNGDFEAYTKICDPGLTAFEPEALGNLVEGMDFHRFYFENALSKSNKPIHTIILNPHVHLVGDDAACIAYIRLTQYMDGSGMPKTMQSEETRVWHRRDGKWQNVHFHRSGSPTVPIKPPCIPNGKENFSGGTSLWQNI
Chain of Rho-associated protein kinase 2 (Homo sapiens) (O75116 whole entry, looked up, the tested form may be a part): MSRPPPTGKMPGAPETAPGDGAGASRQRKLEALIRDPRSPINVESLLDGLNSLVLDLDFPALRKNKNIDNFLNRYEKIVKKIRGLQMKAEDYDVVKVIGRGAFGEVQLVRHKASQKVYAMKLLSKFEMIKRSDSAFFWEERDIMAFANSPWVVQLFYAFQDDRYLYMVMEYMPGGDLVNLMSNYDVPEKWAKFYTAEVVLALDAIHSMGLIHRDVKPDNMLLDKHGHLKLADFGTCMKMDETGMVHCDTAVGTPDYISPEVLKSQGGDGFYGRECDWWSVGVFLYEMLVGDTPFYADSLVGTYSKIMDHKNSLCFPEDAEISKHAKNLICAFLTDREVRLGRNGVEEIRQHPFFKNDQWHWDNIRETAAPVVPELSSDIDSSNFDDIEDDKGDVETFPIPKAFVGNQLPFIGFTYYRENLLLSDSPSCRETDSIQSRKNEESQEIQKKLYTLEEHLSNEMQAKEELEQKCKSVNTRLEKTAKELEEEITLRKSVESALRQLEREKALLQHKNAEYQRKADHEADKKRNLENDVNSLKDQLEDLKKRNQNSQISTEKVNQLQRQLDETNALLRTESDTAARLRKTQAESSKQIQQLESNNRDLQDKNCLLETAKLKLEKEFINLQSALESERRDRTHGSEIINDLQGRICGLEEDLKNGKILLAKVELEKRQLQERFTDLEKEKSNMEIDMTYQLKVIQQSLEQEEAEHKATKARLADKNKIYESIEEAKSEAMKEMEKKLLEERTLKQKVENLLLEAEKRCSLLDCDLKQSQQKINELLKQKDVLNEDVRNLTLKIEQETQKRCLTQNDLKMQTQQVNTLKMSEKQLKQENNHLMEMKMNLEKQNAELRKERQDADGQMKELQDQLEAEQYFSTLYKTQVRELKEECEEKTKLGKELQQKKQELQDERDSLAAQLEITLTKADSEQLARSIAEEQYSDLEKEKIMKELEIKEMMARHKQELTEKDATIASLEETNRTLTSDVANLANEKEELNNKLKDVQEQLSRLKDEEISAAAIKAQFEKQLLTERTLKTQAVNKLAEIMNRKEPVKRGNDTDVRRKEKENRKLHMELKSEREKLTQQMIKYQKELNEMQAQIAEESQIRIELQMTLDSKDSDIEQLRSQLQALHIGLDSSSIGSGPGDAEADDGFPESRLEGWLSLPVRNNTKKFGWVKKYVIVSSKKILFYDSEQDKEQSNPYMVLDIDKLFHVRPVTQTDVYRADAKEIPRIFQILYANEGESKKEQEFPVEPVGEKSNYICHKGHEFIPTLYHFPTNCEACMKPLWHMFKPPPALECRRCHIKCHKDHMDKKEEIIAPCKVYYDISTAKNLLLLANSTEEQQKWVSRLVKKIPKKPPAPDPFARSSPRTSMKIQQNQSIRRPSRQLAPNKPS
Chain of Serine/threonine-protein kinase pim-1 (Homo sapiens) (P11309 whole entry, looked up): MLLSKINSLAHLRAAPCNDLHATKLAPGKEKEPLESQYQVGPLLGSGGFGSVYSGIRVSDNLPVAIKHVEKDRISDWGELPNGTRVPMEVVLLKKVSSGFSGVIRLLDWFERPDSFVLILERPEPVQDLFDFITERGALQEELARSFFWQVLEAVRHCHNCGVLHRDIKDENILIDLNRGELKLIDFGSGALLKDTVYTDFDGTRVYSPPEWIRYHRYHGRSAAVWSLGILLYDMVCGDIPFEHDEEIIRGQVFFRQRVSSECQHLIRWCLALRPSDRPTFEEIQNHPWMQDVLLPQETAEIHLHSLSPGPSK
Chain of Fibroblast growth factor receptor 1 (Homo sapiens) (P11362 22-822 limits assumed): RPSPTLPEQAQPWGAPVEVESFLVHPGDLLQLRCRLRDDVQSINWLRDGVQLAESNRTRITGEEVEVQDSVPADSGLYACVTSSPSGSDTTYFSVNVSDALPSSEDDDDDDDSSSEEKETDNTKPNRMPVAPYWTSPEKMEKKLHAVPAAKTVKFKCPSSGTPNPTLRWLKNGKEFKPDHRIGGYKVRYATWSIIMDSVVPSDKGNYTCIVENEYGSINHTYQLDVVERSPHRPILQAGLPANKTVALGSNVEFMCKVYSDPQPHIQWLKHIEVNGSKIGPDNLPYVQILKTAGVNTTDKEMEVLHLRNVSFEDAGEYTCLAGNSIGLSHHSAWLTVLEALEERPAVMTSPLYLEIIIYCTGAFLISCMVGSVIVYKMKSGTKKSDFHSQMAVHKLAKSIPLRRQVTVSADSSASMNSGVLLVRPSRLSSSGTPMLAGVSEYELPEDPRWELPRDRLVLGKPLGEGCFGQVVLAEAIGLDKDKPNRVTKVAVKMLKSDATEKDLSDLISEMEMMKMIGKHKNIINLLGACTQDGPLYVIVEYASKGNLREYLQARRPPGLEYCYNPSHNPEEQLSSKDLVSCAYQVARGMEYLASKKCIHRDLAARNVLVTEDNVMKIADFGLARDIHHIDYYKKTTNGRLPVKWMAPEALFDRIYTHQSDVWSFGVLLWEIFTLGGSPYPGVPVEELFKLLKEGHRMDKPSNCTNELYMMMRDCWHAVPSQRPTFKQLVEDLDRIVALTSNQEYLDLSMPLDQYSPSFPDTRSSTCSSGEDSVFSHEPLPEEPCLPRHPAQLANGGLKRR
Chain of Fibroblast growth factor receptor 4 (Homo sapiens) (P22455 22-802 limits assumed): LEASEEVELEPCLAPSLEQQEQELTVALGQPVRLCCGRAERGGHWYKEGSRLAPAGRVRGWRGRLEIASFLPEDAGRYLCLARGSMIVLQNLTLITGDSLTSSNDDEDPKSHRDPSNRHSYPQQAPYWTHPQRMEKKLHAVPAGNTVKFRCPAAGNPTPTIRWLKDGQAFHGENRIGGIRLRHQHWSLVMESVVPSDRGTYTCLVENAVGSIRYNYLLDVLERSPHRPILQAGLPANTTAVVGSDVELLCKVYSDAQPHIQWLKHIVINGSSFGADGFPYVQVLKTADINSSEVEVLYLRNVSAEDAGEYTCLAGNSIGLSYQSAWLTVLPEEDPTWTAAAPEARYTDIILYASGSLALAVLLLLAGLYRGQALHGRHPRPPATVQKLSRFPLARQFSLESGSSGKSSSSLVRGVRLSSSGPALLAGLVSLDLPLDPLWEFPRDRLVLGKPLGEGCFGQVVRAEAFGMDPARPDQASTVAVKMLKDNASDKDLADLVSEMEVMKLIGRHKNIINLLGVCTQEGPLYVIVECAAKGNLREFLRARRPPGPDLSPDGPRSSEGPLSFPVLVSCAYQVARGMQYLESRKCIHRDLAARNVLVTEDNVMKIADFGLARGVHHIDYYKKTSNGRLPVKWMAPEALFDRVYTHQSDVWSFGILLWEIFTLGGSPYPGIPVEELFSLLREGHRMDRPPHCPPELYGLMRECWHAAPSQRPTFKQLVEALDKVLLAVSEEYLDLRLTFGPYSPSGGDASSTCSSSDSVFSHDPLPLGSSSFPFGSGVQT
Chain of RAF proto-oncogene serine/threonine-protein kinase (Homo sapiens) (P04049 whole entry, the tested form may be a part): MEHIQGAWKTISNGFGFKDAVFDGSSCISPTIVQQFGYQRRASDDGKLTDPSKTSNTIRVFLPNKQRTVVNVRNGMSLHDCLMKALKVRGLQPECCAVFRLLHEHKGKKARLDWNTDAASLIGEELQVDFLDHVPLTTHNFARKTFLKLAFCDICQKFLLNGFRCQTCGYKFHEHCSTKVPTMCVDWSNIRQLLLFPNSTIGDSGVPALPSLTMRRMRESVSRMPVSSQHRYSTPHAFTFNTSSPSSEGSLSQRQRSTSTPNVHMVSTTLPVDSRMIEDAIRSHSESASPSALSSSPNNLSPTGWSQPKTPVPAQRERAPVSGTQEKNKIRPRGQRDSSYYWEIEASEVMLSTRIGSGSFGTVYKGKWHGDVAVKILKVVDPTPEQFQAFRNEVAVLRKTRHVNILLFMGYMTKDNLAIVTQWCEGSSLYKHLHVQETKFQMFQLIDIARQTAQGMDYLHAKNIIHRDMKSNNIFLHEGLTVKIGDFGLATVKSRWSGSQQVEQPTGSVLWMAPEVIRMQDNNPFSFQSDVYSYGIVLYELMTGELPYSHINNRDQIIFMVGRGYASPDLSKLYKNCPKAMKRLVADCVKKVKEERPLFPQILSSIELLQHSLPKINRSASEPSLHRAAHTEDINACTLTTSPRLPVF

NCC1CCN(c2ncnc3[nH]ccc23)CC1
inhibition [1]: 43%
inhibition [2]: 9%

NC1(Cc2ccc(Cl)cc2)CCN(c2ncnc3[nH]ccc23)CC1
inhibition [3]: 0%

Clc1ccc(C2(c3ccc(-c4ncnc5[nH]cnc45)cc3)CCNCC2)cc1
inhibition [4]: 13%

NC1CCN(c2ncnc3[nH]ccc23)CC1
inhibition [5]: 8%

NCC1CN(c2ncnc3[nH]c4cnccc4c23)CCO1 (configuration not stated)
inhibition [6]: 7.5%

C[C@H](CN(C)C)Oc1nc(Nc2cc3cccc(Cl)c3cn2)cnc1C#N
inhibition [7]: 0%

NCCc1ccc(-c2ncnc3[nH]cnc23)cc1
inhibition [8]: 36%
inhibition [9]: 93%

c1cnc2[nH]ccc2c1
inhibition [10]: 51%

CNCc1ccc(-c2ncnc3[nH]cnc23)cc1
inhibition [11]: 11.5%
inhibition [12]: 52%

Reference: ChEMBL document CHEMBL3132769, “Fragment growing to retain or alter the selectivity of anchored kinase hinge-binding fragments” (Medchemcomm, 2014)
